Article PMC6407913, “DREADD Agonist 21 Is an Effective Agonist for Muscarinic-Based DREADDs in Vitro and in Vivo” (ACS Pharmacology & Translational Science, 2018)
Values joined by “and” are separate entries in the source; they are usually repeats but may differ in a detail not shown here. Identical values can stand only once.

How the values were obtained:
Assay type in all cases: cell-based
[1] = biological target: T1, 318 nonolfactory human GPCRs (Homo sapiens, UniProt Q96P66); settings: GPR101; C21 5 µM
T1 construct: expressed in transfected cells; host or cells: HTLA cells, transient

[2] = biological target: T2, 318 nonolfactory human GPCRs (Homo sapiens, UniProt Q8NFN8); settings: GPR156; C21 5 µM
T2 construct: expressed in transfected cells; host or cells: HTLA cells, transient

[3] = biological target: 318 nonolfactory human GPCRs (Homo sapiens, UniProt P32239); settings: CCKBR; C21 5 µM
Chain of 318 nonolfactory human GPCRs (Homo sapiens, UniProt P32239) (P32239 whole entry): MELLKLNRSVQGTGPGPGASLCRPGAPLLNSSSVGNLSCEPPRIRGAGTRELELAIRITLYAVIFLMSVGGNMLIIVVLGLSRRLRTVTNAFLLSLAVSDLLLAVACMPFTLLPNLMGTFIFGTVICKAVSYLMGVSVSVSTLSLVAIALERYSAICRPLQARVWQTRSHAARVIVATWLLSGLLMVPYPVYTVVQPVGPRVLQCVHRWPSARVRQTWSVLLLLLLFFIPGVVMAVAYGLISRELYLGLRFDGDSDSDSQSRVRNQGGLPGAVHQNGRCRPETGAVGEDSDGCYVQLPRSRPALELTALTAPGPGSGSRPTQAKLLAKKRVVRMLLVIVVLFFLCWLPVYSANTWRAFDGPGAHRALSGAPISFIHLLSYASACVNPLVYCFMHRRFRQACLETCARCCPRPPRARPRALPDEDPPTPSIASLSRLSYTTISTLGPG

[4] = biological target: T3, 318 nonolfactory human GPCRs (Homo sapiens, UniProt Q9NS66); settings: GPR173; C21 5 µM
T3 construct: expressed in transfected cells; host or cells: HTLA cells, transient

[5] = biological target: 318 nonolfactory human GPCRs (Homo sapiens, UniProt P43220); settings: GLP1R; C21 5 µM
[6] = biological target: T4, 318 nonolfactory human GPCRs (Homo sapiens, UniProt Q96LB2); settings: MRGPRX1; C21 5 µM
T4 construct: expressed in transfected cells; host or cells: HTLA cells, transient

[7] = biological target: T5, 318 nonolfactory human GPCRs (Homo sapiens, UniProt Q99679); settings: GPR21; C21 5 µM
T5 construct: expressed in transfected cells; host or cells: HTLA cells, transient

[8] = biological target: T6, 318 nonolfactory human GPCRs (Homo sapiens, UniProt P20309); settings: CHRM3; C21 5 µM
T6 construct: expressed in transfected cells; host or cells: HTLA cells, transient

[9] = biological target: 318 nonolfactory human GPCRs (Homo sapiens, UniProt P47211); settings: GAL1; C21 5 µM
Chain of 318 nonolfactory human GPCRs (Homo sapiens, UniProt P47211) (P47211 whole entry): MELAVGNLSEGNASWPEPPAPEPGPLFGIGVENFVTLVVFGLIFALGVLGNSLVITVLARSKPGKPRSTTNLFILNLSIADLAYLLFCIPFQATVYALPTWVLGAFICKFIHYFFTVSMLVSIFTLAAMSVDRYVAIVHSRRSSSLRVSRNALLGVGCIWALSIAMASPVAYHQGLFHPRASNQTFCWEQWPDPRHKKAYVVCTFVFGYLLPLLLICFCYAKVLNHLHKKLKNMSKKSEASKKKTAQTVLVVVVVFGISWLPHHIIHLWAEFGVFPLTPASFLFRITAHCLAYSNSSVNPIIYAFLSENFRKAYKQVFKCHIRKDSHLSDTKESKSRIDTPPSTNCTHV

[10] = biological target: T7, 318 nonolfactory human GPCRs (Homo sapiens, UniProt Q9H1C0); settings: LPAR5; C21 5 µM
T7 construct: expressed in transfected cells; host or cells: HTLA cells, transient

[11] = biological target: 318 nonolfactory human GPCRs (Homo sapiens, UniProt P61073); settings: CXCR4; C21 5 µM
[12] = biological target: T8, 318 nonolfactory human GPCRs (Homo sapiens, UniProt P30559); settings: OXTR; C21 5 µM
T8 construct: expressed in transfected cells; host or cells: HTLA cells, transient
T8 sequence (P30559 whole entry): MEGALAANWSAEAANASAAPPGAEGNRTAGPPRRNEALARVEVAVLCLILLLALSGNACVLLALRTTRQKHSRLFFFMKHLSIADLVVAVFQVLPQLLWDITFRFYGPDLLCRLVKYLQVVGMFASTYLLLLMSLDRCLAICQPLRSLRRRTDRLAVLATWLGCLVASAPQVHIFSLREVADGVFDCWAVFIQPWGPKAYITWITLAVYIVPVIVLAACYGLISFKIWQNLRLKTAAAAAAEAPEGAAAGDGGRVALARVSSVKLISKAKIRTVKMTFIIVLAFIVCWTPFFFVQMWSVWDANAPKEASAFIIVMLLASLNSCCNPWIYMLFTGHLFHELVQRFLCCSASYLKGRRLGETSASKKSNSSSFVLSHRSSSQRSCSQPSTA

[13] = biological target: T9, 318 nonolfactory human GPCRs (Homo sapiens, UniProt Q8IWK6); settings: GPR125; C21 5 µM
T9 construct: expressed in transfected cells; host or cells: HTLA cells, transient

[14] = biological target: 318 nonolfactory human GPCRs (Homo sapiens, UniProt P31391); settings: SSTR4; C21 5 µM
Chain of 318 nonolfactory human GPCRs (Homo sapiens, UniProt P31391) (P31391 whole entry): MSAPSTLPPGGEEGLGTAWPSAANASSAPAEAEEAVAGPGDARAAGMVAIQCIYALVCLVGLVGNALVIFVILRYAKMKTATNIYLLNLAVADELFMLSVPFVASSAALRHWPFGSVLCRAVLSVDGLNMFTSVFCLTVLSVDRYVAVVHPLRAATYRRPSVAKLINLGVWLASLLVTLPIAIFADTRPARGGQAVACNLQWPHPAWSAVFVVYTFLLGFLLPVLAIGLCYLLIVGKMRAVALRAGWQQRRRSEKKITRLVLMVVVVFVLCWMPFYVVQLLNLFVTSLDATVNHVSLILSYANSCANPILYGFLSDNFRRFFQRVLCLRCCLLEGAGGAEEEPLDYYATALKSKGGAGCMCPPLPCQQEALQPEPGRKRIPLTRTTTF

[15] = biological target: T10, 318 nonolfactory human GPCRs (Homo sapiens, UniProt O14843); settings: FFA3; C21 5 µM
T10 construct: expressed in transfected cells; host or cells: HTLA cells, transient

[16] = biological target: T11, 318 nonolfactory human GPCRs (Homo sapiens, UniProt P32302); settings: CXCR5; C21 5 µM
T11 construct: expressed in transfected cells; host or cells: HTLA cells, transient
T11 sequence (P32302 whole entry): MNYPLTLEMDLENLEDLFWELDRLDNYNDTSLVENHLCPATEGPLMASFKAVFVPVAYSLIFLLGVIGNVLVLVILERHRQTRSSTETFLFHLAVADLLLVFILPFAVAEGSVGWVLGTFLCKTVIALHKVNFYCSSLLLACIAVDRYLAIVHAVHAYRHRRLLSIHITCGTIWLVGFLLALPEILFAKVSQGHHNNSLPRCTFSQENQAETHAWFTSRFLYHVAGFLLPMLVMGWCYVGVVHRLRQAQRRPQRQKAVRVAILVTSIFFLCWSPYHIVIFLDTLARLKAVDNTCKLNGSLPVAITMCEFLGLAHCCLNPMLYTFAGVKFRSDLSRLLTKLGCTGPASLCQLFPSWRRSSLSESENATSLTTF

[17] = biological target: T12, 318 nonolfactory human GPCRs (Homo sapiens, UniProt O00155); settings: GPR25; C21 5 µM
T12 construct: expressed in transfected cells; host or cells: HTLA cells, transient

[18] = biological target: T13, 318 nonolfactory human GPCRs (Homo sapiens, UniProt Q01718); settings: MC2R; C21 5 µM
T13 construct: expressed in transfected cells; host or cells: HTLA cells, transient

[19] = biological target: 318 nonolfactory human GPCRs (Homo sapiens, UniProt P28221); settings: HTR1D; C21 5 µM
Chain of 318 nonolfactory human GPCRs (Homo sapiens, UniProt P28221) (P28221 whole entry): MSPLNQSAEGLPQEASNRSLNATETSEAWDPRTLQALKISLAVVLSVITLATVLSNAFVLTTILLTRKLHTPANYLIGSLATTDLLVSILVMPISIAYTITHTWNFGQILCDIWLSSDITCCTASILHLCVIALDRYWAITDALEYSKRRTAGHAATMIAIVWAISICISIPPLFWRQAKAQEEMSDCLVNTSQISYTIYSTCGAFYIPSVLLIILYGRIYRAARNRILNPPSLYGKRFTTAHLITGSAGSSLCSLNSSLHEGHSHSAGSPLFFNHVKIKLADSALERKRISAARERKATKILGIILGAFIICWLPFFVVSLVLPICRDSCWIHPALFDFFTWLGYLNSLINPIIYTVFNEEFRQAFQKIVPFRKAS

[20] = biological target: T14, 318 nonolfactory human GPCRs (Homo sapiens, UniProt P33032); settings: MC5R; C21 5 µM
T14 construct: expressed in transfected cells; host or cells: HTLA cells, transient
T14 sequence (P33032 whole entry): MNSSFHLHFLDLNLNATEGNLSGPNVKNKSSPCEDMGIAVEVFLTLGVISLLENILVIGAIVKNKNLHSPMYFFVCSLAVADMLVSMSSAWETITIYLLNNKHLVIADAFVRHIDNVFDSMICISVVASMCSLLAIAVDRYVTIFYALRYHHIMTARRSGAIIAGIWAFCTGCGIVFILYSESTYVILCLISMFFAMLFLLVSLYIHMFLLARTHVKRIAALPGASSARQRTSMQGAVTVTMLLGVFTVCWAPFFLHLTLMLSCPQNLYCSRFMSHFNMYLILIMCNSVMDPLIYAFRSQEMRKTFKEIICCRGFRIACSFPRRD

[21] = biological target: 318 nonolfactory human GPCRs (Homo sapiens, UniProt P32238); settings: CCKAR; C21 5 µM
Chain of 318 nonolfactory human GPCRs (Homo sapiens, UniProt P32238) (P32238 whole entry): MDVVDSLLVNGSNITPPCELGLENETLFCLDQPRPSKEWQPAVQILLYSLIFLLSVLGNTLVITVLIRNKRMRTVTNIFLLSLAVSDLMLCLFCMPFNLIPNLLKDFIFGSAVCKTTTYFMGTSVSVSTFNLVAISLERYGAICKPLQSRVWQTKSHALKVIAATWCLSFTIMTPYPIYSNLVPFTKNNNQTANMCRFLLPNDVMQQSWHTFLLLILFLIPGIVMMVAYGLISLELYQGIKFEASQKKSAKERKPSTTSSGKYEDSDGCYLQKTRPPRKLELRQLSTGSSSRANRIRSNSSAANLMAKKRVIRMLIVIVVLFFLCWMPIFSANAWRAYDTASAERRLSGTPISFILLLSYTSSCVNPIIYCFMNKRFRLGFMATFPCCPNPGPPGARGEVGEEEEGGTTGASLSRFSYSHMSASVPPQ

[22] = biological target: T15, 318 nonolfactory human GPCRs (Homo sapiens, UniProt Q96P68); settings: OXGR1; C21 5 µM
T15 construct: expressed in transfected cells; host or cells: HTLA cells, transient

[23] = biological target: 318 nonolfactory human GPCRs (Homo sapiens, UniProt P21462); settings: FPR1; C21 5 µM
Chain of 318 nonolfactory human GPCRs (Homo sapiens, UniProt P21462) (P21462 whole entry): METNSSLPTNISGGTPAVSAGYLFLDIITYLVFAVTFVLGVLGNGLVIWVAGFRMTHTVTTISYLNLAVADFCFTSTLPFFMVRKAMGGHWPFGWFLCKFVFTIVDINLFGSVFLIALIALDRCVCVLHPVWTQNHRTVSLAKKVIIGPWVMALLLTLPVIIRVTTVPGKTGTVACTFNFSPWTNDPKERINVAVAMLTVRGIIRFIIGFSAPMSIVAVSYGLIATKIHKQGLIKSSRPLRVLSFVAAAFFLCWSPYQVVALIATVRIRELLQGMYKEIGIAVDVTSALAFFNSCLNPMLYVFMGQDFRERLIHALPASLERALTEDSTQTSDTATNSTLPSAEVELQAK

[24] = biological target: 318 nonolfactory human GPCRs (Homo sapiens, UniProt P28335, I156V/I160V); settings: HTR2C VNV; C21 5 µM
[25] = biological target: T16, 318 nonolfactory human GPCRs (Homo sapiens, UniProt P48146); settings: NPBW2; C21 5 µM
T16 construct: expressed in transfected cells; host or cells: HTLA cells, transient
T16 sequence (P48146 whole entry): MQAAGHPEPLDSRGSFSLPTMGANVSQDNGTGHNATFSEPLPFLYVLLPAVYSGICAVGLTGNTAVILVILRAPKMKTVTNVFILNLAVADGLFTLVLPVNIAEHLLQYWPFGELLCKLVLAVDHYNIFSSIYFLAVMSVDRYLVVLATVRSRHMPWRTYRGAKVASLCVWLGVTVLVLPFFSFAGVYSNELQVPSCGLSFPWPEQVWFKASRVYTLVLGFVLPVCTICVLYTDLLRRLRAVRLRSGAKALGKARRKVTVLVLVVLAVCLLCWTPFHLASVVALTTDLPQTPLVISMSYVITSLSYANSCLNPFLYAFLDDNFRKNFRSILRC

[26] = biological target: T17, 318 nonolfactory human GPCRs (Homo sapiens, UniProt P46095); settings: GPR6; C21 5 µM
T17 construct: expressed in transfected cells; host or cells: HTLA cells, transient

[27] = biological target: 318 nonolfactory human GPCRs (Homo sapiens, UniProt P48546); settings: GIPR; C21 5 µM
[28] = biological target: T18, 318 nonolfactory human GPCRs (Homo sapiens, UniProt P25089); settings: FPR3; C21 5 µM
T18 construct: expressed in transfected cells; host or cells: HTLA cells, transient
T18 sequence (P25089 whole entry): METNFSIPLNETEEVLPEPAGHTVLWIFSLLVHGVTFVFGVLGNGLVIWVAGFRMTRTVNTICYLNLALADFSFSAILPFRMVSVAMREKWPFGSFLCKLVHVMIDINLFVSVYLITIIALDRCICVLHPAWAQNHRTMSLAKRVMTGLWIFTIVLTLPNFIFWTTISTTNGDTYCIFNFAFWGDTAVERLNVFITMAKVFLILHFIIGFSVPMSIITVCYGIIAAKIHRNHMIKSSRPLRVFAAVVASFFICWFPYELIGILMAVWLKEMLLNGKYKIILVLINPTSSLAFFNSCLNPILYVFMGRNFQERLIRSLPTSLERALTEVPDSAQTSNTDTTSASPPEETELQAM

[29] = biological target: T19, 318 nonolfactory human GPCRs (Homo sapiens, UniProt Q13324); settings: CRHR2; C21 5 µM
T19 construct: expressed in transfected cells; host or cells: HTLA cells, transient

[30] = biological target: 318 nonolfactory human GPCRs (Homo sapiens, UniProt Q13258); settings: PTGDR; C21 5 µM
Chain of 318 nonolfactory human GPCRs (Homo sapiens, UniProt Q13258) (Q13258 whole entry): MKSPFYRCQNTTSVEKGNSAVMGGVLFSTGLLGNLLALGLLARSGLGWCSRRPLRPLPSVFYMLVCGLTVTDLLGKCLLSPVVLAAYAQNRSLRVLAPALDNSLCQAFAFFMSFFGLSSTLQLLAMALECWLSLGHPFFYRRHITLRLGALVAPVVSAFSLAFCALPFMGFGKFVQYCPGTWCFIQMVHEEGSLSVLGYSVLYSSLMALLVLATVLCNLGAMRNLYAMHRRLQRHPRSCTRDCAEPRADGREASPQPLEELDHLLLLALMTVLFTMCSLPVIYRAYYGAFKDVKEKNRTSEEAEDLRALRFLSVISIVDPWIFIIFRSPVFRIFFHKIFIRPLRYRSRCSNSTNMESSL

[31] = biological target: T20, 318 nonolfactory human GPCRs (Homo sapiens, UniProt Q9Y5Y3); settings: GPR45; C21 5 µM
T20 construct: expressed in transfected cells; host or cells: HTLA cells, transient
T20 sequence (Q9Y5Y3 whole entry): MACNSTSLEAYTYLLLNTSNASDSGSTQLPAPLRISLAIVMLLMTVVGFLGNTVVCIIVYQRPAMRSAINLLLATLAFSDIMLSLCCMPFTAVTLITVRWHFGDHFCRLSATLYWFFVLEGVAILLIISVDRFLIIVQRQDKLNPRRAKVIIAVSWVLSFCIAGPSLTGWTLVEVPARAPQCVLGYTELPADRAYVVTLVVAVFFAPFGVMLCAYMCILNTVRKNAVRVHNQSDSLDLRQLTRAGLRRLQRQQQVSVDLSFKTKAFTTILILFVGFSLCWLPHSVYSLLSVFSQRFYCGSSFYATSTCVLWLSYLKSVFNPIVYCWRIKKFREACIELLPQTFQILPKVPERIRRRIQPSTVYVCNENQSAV

[32] = biological target: T21, 318 nonolfactory human GPCRs (Homo sapiens, UniProt P46089); settings: GPR3; C21 5 µM
T21 construct: expressed in transfected cells; host or cells: HTLA cells, transient

[33] = biological target: T22, 318 nonolfactory human GPCRs (Homo sapiens, UniProt O15218); settings: GPR182; C21 5 µM
T22 construct: expressed in transfected cells; host or cells: HTLA cells, transient

[34] = biological target: T23, 318 nonolfactory human GPCRs (Homo sapiens, UniProt P34995); settings: PTGER1; C21 5 µM
T23 construct: expressed in transfected cells; host or cells: HTLA cells, transient

## c1ccc2c(c1)N=C(N1CCNCC1)c1ccccc1N2 [C21, 11-(1-piperazinyl)-5H-dibenzo[b,e][1,4]diazepine]
[1]
  FOLD OVER BASAL: 1.2 fold and 1 fold and 0.9 fold
[2]
  FOLD OVER BASAL: 1.1 fold and 0.9 fold and 1.4 fold
[3]
  FOLD OVER BASAL: 1.8 fold and 2.1 fold and 1.9 fold and 1.2 fold
[4]
  FOLD OVER BASAL: 0.8 fold and 0.5 fold
[5]
  FOLD OVER BASAL: 0.6 fold and 0.8 fold and 0.7 fold and 0.5 fold
[6]
  FOLD OVER BASAL: 0.6 fold and 1.2 fold
[7]
  FOLD OVER BASAL: 0.9 fold and 0.8 fold and 1.2 fold and 0.7 fold
[8]
  FOLD OVER BASAL: 3.1 fold and 3.7 fold and 2.6 fold and 3.4 fold
[9]
  FOLD OVER BASAL: 0.7 fold and 0.5 fold and 0.9 fold and 0.8 fold
[10]
  FOLD OVER BASAL: 0.8 fold and 1.2 fold and 0.6 fold and 0.7 fold
[11]
  FOLD OVER BASAL: 0.7 fold and 1 fold and 0.9 fold
[12]
  FOLD OVER BASAL: 0.8 fold and 0.5 fold and 1 fold
[13]
  FOLD OVER BASAL: 0.5 fold and 0.8 fold and 1 fold and 0.9 fold
[14]
  FOLD OVER BASAL: 1.7 fold and 1.4 fold and 1.2 fold and 1.1 fold
[15]
  FOLD OVER BASAL: 0.6 fold and 0.7 fold
[16]
  FOLD OVER BASAL: 0.9 fold and 1.3 fold and 1.2 fold
[17]
  FOLD OVER BASAL: 0.9 fold and 1.1 fold
[18]
  FOLD OVER BASAL: 1.1 fold and 0.6 fold and 0.7 fold
[19]
  FOLD OVER BASAL: 1 fold and 1.1 fold and 1.3 fold
[20]
  FOLD OVER BASAL: 1.2 fold and 0.9 fold and 1.3 fold and 1 fold
[21]
  FOLD OVER BASAL: 1.2 fold and 0.8 fold and 0.7 fold
[22]
  FOLD OVER BASAL: 0.7 fold and 0.6 fold and 1.2 fold
[23]
  FOLD OVER BASAL: 0.9 fold and 0.7 fold and 0.6 fold
[24]
  FOLD OVER BASAL: 0.4 fold and 0.3 fold
[25]
  FOLD OVER BASAL: 1.1 fold and 1.3 fold and 1.4 fold
[26]
  FOLD OVER BASAL: 0.9 fold and 1.3 fold and 1 fold and 1.2 fold
[27]
  FOLD OVER BASAL: 0.3 fold and 0.4 fold
[28]
  FOLD OVER BASAL: 1.2 fold and 0.9 fold and 1.1 fold and 1 fold
[29]
  FOLD OVER BASAL: 1.3 fold and 1 fold and 0.9 fold
[30]
  FOLD OVER BASAL: 1.3 fold and 1.5 fold and 1 fold and 1.4 fold
[31]
  FOLD OVER BASAL: 0.8 fold and 0.6 fold and 1 fold
[32]
  FOLD OVER BASAL: 0.8 fold and 0.9 fold and 0.7 fold
[33]
  FOLD OVER BASAL: 0.9 fold and 1 fold and 1.1 fold and 0.7 fold
[34]
  FOLD OVER BASAL: 0.9 fold and 1 fold and 1.6 fold and 0.8 fold
